Assay results as given in patent US10196357B2, “Biaryl compositions and methods for modulating a kinase cascade” (Athenex, Inc., priority 2007, dated 2019).
Where “and” joins values, the source holds several entries; their conditions need not be identical. Equal entries are not always repeated. Where two headings read alike, the source gives them in different places.

How the values were obtained:
[1] = system: wild-type aywl strain of HBV; test: HBV primary assay (HepG2-2.2.15 antiviral assay); type: cell-based; settings: Test Concentration 1 μM
Method: The HBV primary assay developed was conducted similarly to that described by Korba et al., (Antiviral Res. 15: 217-228 (1991) and Antiviral Res. 19: 55-70 (1992)) with the exception that viral DNA detection and quantification have been improved and simplified (Korba et al., Antiviral Res. 19: 55-70 (1992)).
Compound 38 (KX2-377), Compound 136 (KX2-393), and Compound 137 (KX2-394) were evaluated for potential anti-HBV activity using a single high-test concentration of compounds in the standardized HepG2-2.2.15 antiviral assay. The HepG2-2.2.15 is a stable cell line producing high levels of the wild-type aywl strain of HBV. Briefly, HepG2-2.2.15 cells were plated in 96-well plates. Only the interior wells were utilized to reduce “edge effects” observed during cell culture; the exterior wells are filled with complete medium to help minimize sample evaporation. On the following day, the confluent monolayer of HepG2-2.2.15 cells was washed and the medium is replaced with complete medium containing test concentrations of a test article in triplicate. 3TC was used as the positive control, while media alone was added to cells as the untreated control. Three days later the culture medium was replaced with fresh medium containing the appropriately diluted drug. Six days following the initial administration of the test compound, the cell culture supernatant was collected, treated with pronase and DNAse and then used in a real-time quantitative TaqMan PCR assay for direct measurement of HBV DNA copies using an ABI Prism 7900 sequence detection system (Applied Biosystems, Foster City, Calif.).
The antiviral activity of each test compound was calculated by comparing its HBV DNA copies against that of the untreated control cells (100%) to derive percent inhibition level. After removing the supernatant, the remaining cells were subject to CellTiter 96 Aqueous One (Promega, Madison, Wis.) solution cell proliferation assay (MTS-based) to measure cell viability. Cytotoxicity of the compound was determined by comparing its cell viability with that of the untreated cell control to derive percentage of the cell control.

[2] = plasma pharmacokinetics after IV administration; type: in vivo, Male CD-1 mice; settings: single IV dose 5 mg/kg
Method: (§1) [drawing 435] are described below. Plasma concentrations were measured in mice after oral and IV administration. Both oral and IV doses were formulated in saline. Male CD-1 mice were dosed after an overnight fast and fed 4 hours post-dose.
A single IV dose of 139 was administered to male CD-1 mice intravenously at 5 mg/kg (dose volume of 3 mL/kg). The plasma concentration of 139 was measured at 0 min, 5 min, 15 min, 30 min, 1 h, 3 h, 6 h, and 12 h time points. A liquid-liquid extraction procedure was used to isolate the analyte and internal standard from mice plasma. After the extract was dried and reconstituted, the sample was directly injected into a liquid chromatography/mass spectrometry (LC/MS) system. HPLC conditions were as follows: • HPLC System: Shimadzu SCL-10 System • Analytical Column: Aquasil C18 5 μm 50×2.1 mm column. • Column Temperature: Ambient temperature • Autosampler Temperature: Ambient temperature • Mobile Phase A) 10 mM Ammonium formate in water (pH4). • B) Acetonitrile. • Flow Rate: 0.6 mL/min • Injection Volume: 4 μL • Gradient:
• Mass spectrometry conditions were as follows: • Instrument: ABI Sciex API 4000 • Mode: ESI+ • Experiment: MRM (multiple reaction monitoring) • Transitions: 139: m/z 480.1→127.1 (Rt=3.8 minute)

[3] = plasma pharmacokinetics after oral administration; type: in vivo, Male CD-1 mice
Method: as §1
[…] The plasma concentration of 139 was measured at 0 min, 30 min, 1 h, 3 h, 6 h, 12 h, and 24 h time points. As discussed above for the i.v. administration, the analyte was extracted and analyzed by HPLC/mass spec.

L3.6pl cells = test: growth inhibition (BrdU), L3.6pl; type: cell-based, human; settings: Homo sapiens, L3.6pl, L3.6pl (Pancreas) cells, single agent
Description: L3.6pl cells are previously described in Trevino et al. Am J Pathol.

c-Src 3T3 cells = test: BrdU cell growth inhibition, c-Src 3T3; type: cell-based, mouse; settings: Mus musculus; c-Src 3T3 (c-Src527F/NIH3T3) cells; read-out: GI50
Method in brief: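 c-Src 3T3 cells on poly-D-lysine plates in DMEM with 2% FBS, L-glutamine, pyruvate and 10 mM HEPES. Compounds came from 20 mM DMSO stocks diluted in DMEM/10% FBS. Proliferation was read by colorimetric BrdU-incorporation ELISA, and GI50 was extrapolated from growth relative to time-zero and untreated controls.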

isolated Src = isolated Src (Homo sapiens, UniProt P12931); test: titration against isolated Src; type: biochemical; settings: titration data
isolated FAK = isolated FAK (Homo sapiens, UniProt Q05397); test: titration against isolated FAK; type: biochemical; settings: titration data
[4] = system: lung cancer cell line A549; test: tumor growth inhibition, A549; type: cell-based, Human; settings: Homo sapiens, A549, A549 (Lung) cells
Description: (§2) Growth Inhibition. […] T1 values≤T0 values were designated as T, cytotoxicity.

GL261 glioma cells = test: intracranial GL261 glioma survival study; type: in vivo, C57BL/6 mice; settings: 5 mg/kg weekly ×1 oral; C57BL/6 mice, intracranial GL261
Method: (§3) A brain tumor mouse xenograft study was conducted comparing KX2-361 and KX2-391 (KXO1) to Temodar®. The studies were conducted in C57BL/6 mice. GL261 glioma cells (1×10^5 in 5 μl DMEM) were implanted intracranial coordinates: bregma, lateral 2.0 mm, anterior 1.2 mm, 3.0 mm depth dura. Treatment was initiated 3 days post implantation. The groups were as follows (all doses in 100 μl H2O):
The median survival range and the log-rank (Mantel-Cox) statistical test results comparing the survival distributions of the samples.

[5] = body weight in GL261 glioma survival study; type: in vivo; settings: Temodar 5 mg/kg, C57BL/6 mice
Method: as §3
FIGS. 49A-E show the weight gain in each of the C57BL/6 mice in the different treatment groups. The average weight at endpoint for each of the treatment groups is shown below in Table 30. FIG. 50 is a graph showing the average weights over a 40-day period for each of the treatment groups.

SKOV-3 (Ovarian) = test: growth inhibition (BrdU), SKOV-3; type: cell-based, Human; settings: Homo sapiens, SK-OV-3; SKOV-3 (Ovarian) cells
Description: as §2

[6] = male, CD-1, mouse, single oral dose 25 mg/kg

isolated FAK, sequence (Q05397 whole entry): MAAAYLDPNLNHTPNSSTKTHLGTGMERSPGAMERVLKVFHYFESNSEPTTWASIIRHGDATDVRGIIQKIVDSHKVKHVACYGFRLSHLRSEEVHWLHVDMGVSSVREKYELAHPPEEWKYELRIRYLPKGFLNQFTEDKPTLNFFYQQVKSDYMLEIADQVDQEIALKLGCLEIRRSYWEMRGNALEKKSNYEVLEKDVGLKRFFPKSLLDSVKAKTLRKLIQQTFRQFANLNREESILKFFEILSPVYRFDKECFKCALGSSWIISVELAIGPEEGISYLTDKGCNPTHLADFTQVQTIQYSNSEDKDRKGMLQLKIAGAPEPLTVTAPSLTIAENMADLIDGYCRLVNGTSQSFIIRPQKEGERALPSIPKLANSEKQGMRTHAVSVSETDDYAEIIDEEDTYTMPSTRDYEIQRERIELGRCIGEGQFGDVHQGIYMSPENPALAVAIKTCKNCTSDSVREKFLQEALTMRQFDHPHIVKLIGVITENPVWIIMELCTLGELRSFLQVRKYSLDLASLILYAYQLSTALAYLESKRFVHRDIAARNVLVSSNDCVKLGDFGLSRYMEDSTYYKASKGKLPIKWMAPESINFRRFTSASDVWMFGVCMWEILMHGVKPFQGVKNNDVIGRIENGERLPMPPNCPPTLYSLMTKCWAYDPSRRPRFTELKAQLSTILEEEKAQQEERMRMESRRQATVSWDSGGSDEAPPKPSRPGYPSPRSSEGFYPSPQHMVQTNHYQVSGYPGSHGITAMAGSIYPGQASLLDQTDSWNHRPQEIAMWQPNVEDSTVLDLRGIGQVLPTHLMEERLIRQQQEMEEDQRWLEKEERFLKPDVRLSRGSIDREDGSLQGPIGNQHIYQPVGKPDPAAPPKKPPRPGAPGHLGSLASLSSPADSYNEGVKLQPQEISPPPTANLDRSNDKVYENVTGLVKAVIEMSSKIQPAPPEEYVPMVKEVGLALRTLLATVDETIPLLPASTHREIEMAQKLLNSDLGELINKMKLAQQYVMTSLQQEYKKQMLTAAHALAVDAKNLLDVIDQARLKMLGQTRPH
isolated Src, sequence (P12931 whole entry): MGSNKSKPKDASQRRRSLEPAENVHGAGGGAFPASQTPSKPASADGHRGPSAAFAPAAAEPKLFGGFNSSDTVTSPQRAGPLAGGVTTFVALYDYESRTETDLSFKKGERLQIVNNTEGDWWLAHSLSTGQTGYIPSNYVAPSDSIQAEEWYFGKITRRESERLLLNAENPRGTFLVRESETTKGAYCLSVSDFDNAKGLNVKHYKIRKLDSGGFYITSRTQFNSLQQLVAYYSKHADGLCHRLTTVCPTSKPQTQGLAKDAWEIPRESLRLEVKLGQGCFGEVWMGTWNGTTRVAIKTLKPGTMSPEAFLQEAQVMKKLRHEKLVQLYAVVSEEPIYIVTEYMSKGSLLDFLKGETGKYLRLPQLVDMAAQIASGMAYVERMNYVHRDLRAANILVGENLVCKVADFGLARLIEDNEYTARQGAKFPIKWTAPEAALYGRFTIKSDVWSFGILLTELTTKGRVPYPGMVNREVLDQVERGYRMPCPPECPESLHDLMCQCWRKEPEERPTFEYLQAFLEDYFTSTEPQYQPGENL

## Nc1ccn([C@@H]2CS[C@H](CO)O2)c(=O)n1 [Compound 3TC, 3TC, reference compound]
[1]
  Antiviral Activity Percent inhibition of cell control: 92.0%
  Interpretation: Active

## CN1CCN(CCOc2ccc(-c3ccc(CC(=O)NCc4cccc(F)c4)cc3)c(F)c2)CC1 [Compound 139, 2-(2′-fluoro-4′-(2-(4-methylpiperazin-1-yl)ethoxy)biphenyl-4-yl)-N-(3-fluorobenzyl)acetamide]
[2]; male, CD-1, mouse, plasma, iv, 5 mg/kg, 5 min, read-out: Plasma Concentrations, Group A, B, C
  concentration at 5 min: 1200 ng/mL
[2]; male, CD-1, mouse, plasma, iv, 5 mg/kg, 5 min, read-out: Plasma Concentrations, Mean
  concentration at 5 min: 1250 ng/mL
[2]; male, CD-1, mouse, plasma, iv, 5 mg/kg, 15 min, read-out: Plasma Concentrations, Group A, B, C
  concentration at 15 min: 273 ng/mL
[2]; male, CD-1, mouse, plasma, iv, 5 mg/kg, 15 min, read-out: Plasma Concentrations, Mean
  concentration at 15 min: 329 ng/mL
[2]; male, CD-1, mouse, plasma, iv, 5 mg/kg, 30 min, read-out: Plasma Concentrations, Group A, B, C
  concentration at 30 min: 500 ng/mL
[2]; male, CD-1, mouse, plasma, iv, 5 mg/kg, 30 min, read-out: Plasma Concentrations, Mean
  concentration at 30 min: 382 ng/mL
[2]; male, CD-1, mouse, plasma, iv, 5 mg/kg, 1 hr, read-out: Plasma Concentrations, Group A, B, C
  concentration at 1 h: 186 ng/mL
[2]; male, CD-1, mouse, plasma, iv, 5 mg/kg, 1 hr, read-out: Plasma Concentrations, Mean
  concentration at 1 h: 178 ng/mL
[2]; male, CD-1, mouse, plasma, iv, 5 mg/kg, 3 hr, read-out: Plasma Concentrations, Mean
  concentration at 3 h: 207 ng/mL
[2]; male, CD-1, mouse, plasma, iv, 5 mg/kg, 6 hr, read-out: Plasma Concentrations, Mean
  concentration at 6 h: 43.2 ng/mL
[2]; male, CD-1, mouse, plasma, iv, 5 mg/kg, BLQ = 0, read-out: Plasma Concentrations, Mean
  concentration at 12 h: 3.67 ng/mL
[2]; male, CD-1, mouse, plasma, iv, 5 mg/kg, read-out: Plasma Concentrations, Group A, B, C
  concentration at 12 h: 11 ng/mL
[2]; male, CD-1, mouse, plasma
  AUC(0-inf): 1420 ng·h/mL
  AUC(0-t): 1410 ng·h/mL
  C0: 2420 ng/mL
  MRT: 2.3 h
  clearance: 58.7 mL/min/kg
[2]; male, CD-1, mouse, plasma, estimated from 3, 6, 12 hours
  half-life: 1.6 h
[2]; male, CD-1, mouse, plasma, read-out: Vss
  Vd: 8.15 L/kg
[2]; plasma
  % AUC Extrap: 0.6%
  AUC0-∞/Dose: 284.1 kg·ng·h/mL/mg
[2]; 5 min, 5 mg/kg
  Plasma Concentrations, Group A, B, C: 1287 ng/mL and 1260 ng/mL
[2]; 15 min, 5 mg/kg
  Plasma Concentrations, Group A, B, C: 306 ng/mL and 407 ng/mL
[2]; 30 min, 5 mg/kg
  Plasma Concentrations, Group A, B, C: 367 ng/mL and 279 ng/mL
[2]; 1 hr, 5 mg/kg
  Plasma Concentrations, Group A, B, C: 210 ng/mL and 137 ng/mL
[3]; male, CD-1, mouse, (Mean AUC0-∞ oral/oral dose)/(Mean AUC0-∞ IV/IV dose)×100%, 25 mg/kg oral, 5 mg/kg IV, read-out: Estimated bioavailability
  bioavailability: 34.4%
[3]; male, CD-1, mouse, po, 25 mg/kg, single PO dose 25 mg/kg, 30 min, read-out: Plasma Concentrations, Mean
  concentration at 30 min: 318 ng/mL
[3]; male, CD-1, mouse, po, 25 mg/kg, single PO dose 25 mg/kg, 1 hr, read-out: Plasma Concentrations, Mean
  concentration at 1 h: 142 ng/mL
[3]; male, CD-1, mouse, po, 25 mg/kg, single PO dose 25 mg/kg, 3 hr, read-out: Plasma Concentrations, Mean
  concentration at 3 h: 330 ng/mL
[3]; male, CD-1, mouse, po, 25 mg/kg, single PO dose 25 mg/kg, 6 hr, read-out: Plasma Concentrations, Mean
  concentration at 6 h: 119 ng/mL
[3]; male, CD-1, mouse, po, 25 mg/kg, single PO dose 25 mg/kg, 12 hr, read-out: Plasma Concentrations, Mean
  concentration at 12 h: 56.6 ng/mL
[3]; male, CD-1, mouse, po, 25 mg/kg, single PO dose 25 mg/kg, BLQ = 0, read-out: Plasma Concentrations, Mean
  concentration at 24 h: 15.6 ng/mL
[3]; male, CD-1, mouse, po, 25 mg/kg, single PO dose 25 mg/kg, read-out: Plasma Concentrations, Group A, B, C
  concentration at 24 h: 31.2 ng/mL
[3]; [6]
  AUC(0-inf): 2440 ng·h/mL
  AUC(0-t): 2300 ng·h/mL
  Cmax: 330 ng/mL
  MRT: 7.7 h
  Tmax: 3 h
[3]; male, CD-1, mouse, single oral dose 25 mg/kg, estimated from 6, 12, 24 hours
  half-life: 6.2 h
[3]; single oral dose 25 mg/kg
  % AUC Extrap: 5.7%
  AUC0-∞/Dose: 97.6 kg·ng·h/mL/mg

## Nc1ccn([C@@H]2O[C@H](CO)[C@@H](O)C2(F)F)c(=O)n1 [Gemcitabine, gemcitabine, reference compound]
L3.6pl cells
  GI50: 2 nM

## CN1CCN(CCOc2ccc(-c3ccc(CC(=O)NCc4cccc(F)c4)nc3)c(F)c2)CC1 [KX2-394]
c-Src 3T3 cells
  GI50: 13 nM
Isolated Src
  IC50: 5000 nM
Isolated FAK
  IC50: > 48000 nM

## C#Cc1cccc(Nc2ncnc3cc(OCCOC)c(OCCOC)cc23)c1 [Tarceva, erlotinib, reference compound]
[4]
  GI50: 1740 nM

## Cn1nnc2c(C(N)=O)ncn2c1=O [Temodar ®, Temodar®, reference compound]
GL261 glioma cells
  Median survival: 29
  survival Range: 26-29
[5]
  Average weight at endpoint: 13.3 g

## CC(=O)O[C@H]1C(=O)[C@@]2(C)[C@H]([C@H](OC(=O)c3ccccc3)[C@]3(O)C[C@H](OC(=O)[C@H](O)[C@@H](NC(=O)c4ccccc4)c4ccccc4)C(C)=C1C3(C)C)[C@]1(OC(C)=O)CO[C@@H]1C[C@@H]2O [taxol, paclitaxel, reference compound]
SKOV-3 (Ovarian)
  GI50: 3.9 nM
